# Laboratory results published in ChEMBL document CHEMBL1201862, “PubChem BioAssay data set” (2004).
#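 Grown in 96-well plates, cells were treated for 48 hours with each compound at five concentrations. Insufficient inhibition: endpoint recorded as highest concentration tested. GI50: concentration for 50% inhibition of growth.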 Activity calls are given as the source filed them. No stated cut-off is given here; in the data, active = GI50 up to about 1.1 µM and inactive = higher.
# Legend:
# Assay in all cases: NCI tumour cell line growth inhibition, 48 h
# [1] = system: DLD-1
# [2] = system: EKVX
# [3] = system: A549
# [4] = system: COLO 205
# [5] = system: RXF 393
# [6] = system: CCRF-CEM
# [7] = system: SNB-19
# [8] = system: HOP-18
# [9] = system: NCI-H23
# [10] = system: DMS-114
# [11] = system: HCT-116
# [12] = system: SK-MEL-5
# [13] = system: SF-295
# [14] = system: UACC-62
# [15] = system: HCT-15
# [16] = system: SNB-78
# [17] = system: SNB-75
# [18] = system: XF498
# [19] = system: 786-0
# [20] = system: HL-60
# [21] = system: SR
# [22] = system: A498
# [23] = system: U-251
# [24] = system: UACC-257
# [25] = system: HT-29
# [26] = system: OVCAR-4
# [27] = system: SF-268
# [28] = system: K562
# [29] = system: Malme-3M
# [30] = system: IGROV-1
# [31] = system: MOLT-4
# [32] = system: LXFL 529
# [33] = system: KM-20L2
# [34] = system: DMS-273
# [35] = system: M19-MEL
# [36] = system: NCI-H522
# [37] = system: SW-620
# [38] = system: SK-MEL-28
# [39] = system: HCC 2998
# [40] = system: ACHN
# [41] = system: HOP-62
# [42] = system: HOP-92
# [43] = system: SF-539
# [44] = system: UO-31
# [45] = system: M14
# [46] = system: SN12C
# [47] = system: SK-OV-3
# [48] = system: NCI-H226
# [49] = system: RPMI-8226
# [50] = system: OVCAR-8
# [51] = system: PC-3
# [52] = system: KM12
# [53] = system: NCI/ADR-RES
# [54] = system: TK-10
# [55] = system: Hs-578T
# [56] = system: BT-549
# [57] = system: MDA-N
# [58] = system: MDA-MB-231
# [59] = system: OVCAR-3
# [60] = system: T47D
# [61] = system: CAKI-1
# [62] = system: OVCAR-5
# [63] = system: NCI-H460
# [64] = system: DU-145
# [65] = system: MDA-MB-435
# [66] = system: SK-MEL-2
# [67] = system: MCF7
# [68] = system: LOX IMVI
smiles,measurement,setting,value
COc1ccc(N2C(=O)C3c4[nH]c5ccccc5c4C4CC(C)(C)CC(C)(C)C4C3C2=O)cc1 (stereo not drawn),GI50,[1],27000 nM (inactive)
same,GI50,[2],15900 nM (inactive)
same,GI50,[3],13200 nM (inactive)
same,GI50,[4],8810 nM (inactive)
same,GI50,[5],12800 nM (inactive)
same,GI50,[6],69700 nM (inactive)
same,GI50,[7],23700 nM (inactive)
same,GI50,[8],16700 nM (inactive)
same,GI50,[9],13800 nM (inactive)
same,GI50,[10],27200 nM (inactive)
same,GI50,[11],13500 nM (inactive)
same,GI50,[12],19400 nM (inactive)
same,GI50,[13],8050 nM (inactive)
same,GI50,[14],14400 nM (inactive)
same,GI50,[15],30200 nM
same,GI50,[16],21400 nM (inactive)
same,GI50,[17],16800 nM (inactive)
same,GI50,[18],17600 nM (inactive)
same,GI50,[19],12900 nM (inactive)
same,GI50,[20],42500 nM (inactive)
same,GI50,[21],10300 nM (inactive)
same,GI50,[22],14500 nM (inactive)
same,GI50,[23],16800 nM (inactive)
same,GI50,[24],19400 nM (inactive)
same,GI50,[25],26000 nM (inactive)
same,GI50,[26],10200 nM (inactive)
same,GI50,[27],16400 nM (inactive)
same,GI50,[28],44500 nM (inactive)
same,GI50,[29],16400 nM (inactive)
same,GI50,[30],22900 nM (inactive)
same,GI50,[31],14400 nM (inactive)
same,GI50,[32],13300 nM (inactive)
same,GI50,[33],29300 nM (inactive)
same,GI50,[34],11000 nM (inactive)
same,GI50,[35],15100 nM (inactive)
same,GI50,[36],17200 nM (inactive)
same,GI50,[37],20000 nM (inactive)
same,GI50,[38],14100 nM (inactive)
same,GI50,[39],33600 nM (inactive)
same,GI50,[40],14900 nM (inactive)
same,GI50,[41],16700 nM (inactive)
same,GI50,[42],11900 nM (inactive)
same,GI50,[43],12600 nM (inactive)
same,GI50,[44],26000 nM (inactive)
same,GI50,[45],14300 nM (inactive)
same,GI50,[46],16000 nM (inactive)
same,GI50,[47],17300 nM (inactive)
same,GI50,[48],14000 nM (inactive)
same,GI50,[49],31800 nM (inactive)
same,GI50,[50],3200 nM (inactive)
CN(C)C(=S)/N=c1\ssc(=S)n1Cc1ccccc1,GI50,[51],249 nM (active)
same,GI50,[1],348 nM (active)
same,GI50,[2],2150 nM (inactive)
same,GI50,[52],240 nM (active)
same,GI50,[3],780 nM (active)
same,GI50,[4],288 nM (active)
same,GI50,[5],172 nM (active)
same,GI50,[6],411 nM (active)
same,GI50,[7],1080 nM (active)
same,GI50,[8],2220 nM (inactive)
same,GI50,[9],465 nM (active)
same,GI50,[10],201 nM (active)
same,GI50,[11],344 nM (active)
same,GI50,[12],217 nM (active)
same,GI50,[53],119 nM (active)
same,GI50,[13],229 nM (active)
same,GI50,[14],312 nM (active)
same,GI50,[15],237 nM
same,GI50,[16],800 nM (active)
same,GI50,[17],203 nM (active)
same,GI50,[18],210 nM (active)
same,GI50,[19],361 nM (active)
same,GI50,[20],338 nM (active)
same,GI50,[54],1450 nM (inactive)
same,GI50,[21],129 nM (active)
same,GI50,[55],193 nM (active)
same,GI50,[56],> 100000 nM (inactive)
same,GI50,[57],34.8 nM (active)
same,GI50,[22],510 nM (active)
same,GI50,[23],419 nM (active)
same,GI50,[58],631 nM (active)
same,GI50,[59],168 nM (active)
same,GI50,[60],6310 nM (inactive)
same,GI50,[24],430 nM (active)
same,GI50,[25],308 nM (active)
same,GI50,[26],3420 nM (inactive)
same,GI50,[27],1820 nM (inactive)
same,GI50,[28],206 nM (active)
same,GI50,[29],243 nM (active)
same,GI50,[30],632 nM (active)
same,GI50,[31],569 nM (active)
same,GI50,[32],459 nM (active)
same,GI50,[33],195 nM (active)
same,GI50,[34],250 nM (active)
same,GI50,[61],676 nM (active)
same,GI50,[35],318 nM (active)
same,GI50,[36],63 nM (active)
same,GI50,[37],201 nM (active)
same,GI50,[38],661 nM (active)
same,GI50,[62],20000 nM (inactive)
same,GI50,[39],570 nM (active)
same,GI50,[40],807 nM (active)
same,GI50,[41],546 nM (active)
same,GI50,[63],340 nM (active)
same,GI50,[42],342 nM (active)
same,GI50,[43],309 nM (active)
same,GI50,[44],667 nM (active)
same,GI50,[64],1790 nM (inactive)
same,GI50,[45],301 nM (active)
same,GI50,[46],867 nM (active)
same,GI50,[47],434 nM (active)
same,GI50,[65],33.7 nM (active)
same,GI50,[66],365 nM (active)
same,GI50,[48],2610 nM (inactive)
same,GI50,[67],820 nM (active)
same,GI50,[49],785 nM (active)
same,GI50,[68],455 nM (active)
same,GI50,[50],510 nM (active)
